Laboratory results from patent US8658668B2, “PI3 kinase/mTOR dual inhibitor” (Eli Lilly and Company, priority 2011, dated 2014).

What was measured:
PI3Kb = PI3Kb (Homo sapiens, UniProt P42338); assay: PI3K beta Scintillation Proximity Assay; assay type: biochemical; conditions: 40 μM ATP; n=2; read-out: absolute IC50
Method: Use the PI3K beta Scintillation Proximity Assay (PI3K beta SPA) to determine the IC50 value against PI3Kb for a compound. This assay assesses the activity PI3K beta in the presence of compound inhibitors by measuring incorporation of γ-P33-ATP into phosphatidylinositol (4,5)bisphosphate (PIP2). Perform the kinase reactions in 40 μL reaction volumes in 96-well half-area flat bottom white with clear bottom polystyrene plates. Add PI3K beta to start the reaction. Final reaction conditions are 43.75 mM 2,2-bis(hydroxymethyl)-2,2′,2″-nitrilotriethanol (Bis-Tris) pH 7.0, 87.5 mM sodium chloride (NaCl), 1.76 mM polyethylene glycol octylphenyl ether (Triton™ X-100), 40 μM adenosine triphosphate (ATP), 1.0 mM magnesium chloride (MgCl2) and 1 μCi per well γ-P33-adenosine triphosphate (γ-P33-ATP), 6.0 nM PI3K beta human recombinant enzyme, 0.2 mM palmitoyl-oleoyl phosphatidylserine (POPS), 0.04 mM phosphatidylinositol (4,5)bisphosphate (PIP2), 4% DMSO and serial dilutions of compound (diluted 1:3 from 20,000 to 1 nM). […] Centrifuge plates for 30 min at 1000 revolutions per minute (RPM) and count radioactivity with a Wallac Microbeta Trilux normalized for P33. Derive the IC50 value for the compound by using percent inhibition data calculated using the reaction data relative to on-plate controls (active enzyme versus 62.5 millimolar EDTA-inhibited enzyme controls). […]

S6RP(pS240/242) = assay: Phosphorylated S6RP in U87MG cells; assay type: cell-based; conditions: Homo sapiens, U-87 MG, n = 3, read-out: S6RP(pS240/242) Absolute IC50
Method: This homogeneous assay format uses immuno-sandwich capture of the phosphorylated analyte and then detection with antibody-coated Alphascreen beads to generate an amplified signal.
Maintain U87MG cells in U87MG growth medium consisting of DMEM (GIBCO 11965-092) supplemented with 10% fetal bovine serum (FBS, GIBCO, 10091-141), 1% nonessential amino acids (GIBCO, 11140-050) and 1% sodium pyruvate (GIBCO, 11360-070). Harvest cells using standard cell culture procedures and then count using Vi-Cell. Plate 100 μL of U87MG cells in growth medium (50,000 cells/well) into Costar #3596 96 well plates and incubate overnight at 37° C., 5% CO2.
Incubate for one h at 37° C., then remove the medium and add 50 μL of 1× SureFire Lysis Buffer (TGR Biosciences SureFire® Kit component) to each well and incubate at room temperature for 10 min with gentle shaking Transfer 6 μL lysate and 10 μL reaction mixture (60 parts reaction buffer/10 parts activation buffer/1 part each of donor and acceptor beads, Perkin Elmer, 6760617R) to a 384 well proxiplate (Perkin Elmer, 6006280) for the p-p70S6 kinase (Thr389) and p-AKT(Ser473) assays. Seal the plate and incubate at RT for 4 h. […] Read the plates on a Perkin Elmer EnVision equipped with a TurboModule using standard AlphaScreen® settings (Ex680 nm and Em520-620 nm). […]

786-O = assay: Cell proliferation assay (CellTiter-Glo), 786-O; assay type: cell-based; conditions: Homo sapiens, 786-0, 72 h
Method: Plate cells in a 96-well plate at 2000 cells/well in 100 μL of cell specific medium (for U87MG use DMEM, 10% FBS, 25 mM 4-(2-hydroxyethyl)-1-piperazineethanesulfonic acid (HEPES), 1.0 mM sodium pyruvate, and 0.1 mM Non Essential Amino Acids (ATCC Cat.#30-2002); for HT1080 use Eagle's MEM, 10% FBS (ATCC Cat.#30-2003); for H1975, A2780, SJSA-1 and 786-O use RPMI 1640, 10% FBS (ATCC Cat.#30-2001); for A204 use McCoy's 5A, 10% FBS (ATCC Cat.#30-2007) except in column 1 use medium only as the blank control. Incubate the plates overnight at 37° C. and 5% CO2. On the next day, prepare compound stocks at 1 mM in DMSO and serially dilute in DMSO in a 96-well round bottom polypropylene plate. Assay compounds at 10 concentrations in duplicate, 4 compounds per plate.
Transfer 4 μL of the DMSO serial dilutions to a 96 well plate and add 196 μL of culture medium to create a 10× stock for dosing. Gently transfer 11 μL of each dosing stock to the corresponding well of the cell plate resulting in a 0.2% DMSO concentration and a 111 μL final volume. […]
Prepared the CellTiter-Glo reagent (Promega, Cat: G7571) and add 100 µL to each well after the incubation is complete, homogenize the cells by mixing on an orbital shaker for 2 min and then incubate at RT for 10 min to allow the luminescent signal to stabilize. Record the luminescent raw data with a Wallac Victor V plate reader. […]

[1] = system: CXF 280 human tumor xenograft cells; assay: Oncotest tumor clonogenic assay, CXF 280; assay type: cell-based; conditions: colony formation, Colon CXF 280, adeno carcinoma, pd, read-out: Absolute IC50
[2] = system: LXFL 1072 human tumor xenograft cells; assay: Oncotest tumor clonogenic assay, LXFL 1072; assay type: cell-based; conditions: colony formation, NSCLC LXFL 1072, large cell lung carcinoma, pd, read-out: Absolute IC50
[3] = system: MEXF 1539 human tumor xenograft cells; assay: Oncotest tumor clonogenic assay, MEXF 1539; assay type: cell-based; conditions: colony formation, Melanoma MEXF 1539, amelanotic melanoma, md, read-out: Absolute IC50
[4] = system: PAXF 736 human tumor xenograft cells; assay: Oncotest tumor clonogenic assay, PAXF 736; assay type: cell-based; conditions: PAXF736, colony formation, Pancreas PAXF 736, adeno carcinoma, pd, read-out: Absolute IC50

Sequence of PI3Kb (P42338 whole entry): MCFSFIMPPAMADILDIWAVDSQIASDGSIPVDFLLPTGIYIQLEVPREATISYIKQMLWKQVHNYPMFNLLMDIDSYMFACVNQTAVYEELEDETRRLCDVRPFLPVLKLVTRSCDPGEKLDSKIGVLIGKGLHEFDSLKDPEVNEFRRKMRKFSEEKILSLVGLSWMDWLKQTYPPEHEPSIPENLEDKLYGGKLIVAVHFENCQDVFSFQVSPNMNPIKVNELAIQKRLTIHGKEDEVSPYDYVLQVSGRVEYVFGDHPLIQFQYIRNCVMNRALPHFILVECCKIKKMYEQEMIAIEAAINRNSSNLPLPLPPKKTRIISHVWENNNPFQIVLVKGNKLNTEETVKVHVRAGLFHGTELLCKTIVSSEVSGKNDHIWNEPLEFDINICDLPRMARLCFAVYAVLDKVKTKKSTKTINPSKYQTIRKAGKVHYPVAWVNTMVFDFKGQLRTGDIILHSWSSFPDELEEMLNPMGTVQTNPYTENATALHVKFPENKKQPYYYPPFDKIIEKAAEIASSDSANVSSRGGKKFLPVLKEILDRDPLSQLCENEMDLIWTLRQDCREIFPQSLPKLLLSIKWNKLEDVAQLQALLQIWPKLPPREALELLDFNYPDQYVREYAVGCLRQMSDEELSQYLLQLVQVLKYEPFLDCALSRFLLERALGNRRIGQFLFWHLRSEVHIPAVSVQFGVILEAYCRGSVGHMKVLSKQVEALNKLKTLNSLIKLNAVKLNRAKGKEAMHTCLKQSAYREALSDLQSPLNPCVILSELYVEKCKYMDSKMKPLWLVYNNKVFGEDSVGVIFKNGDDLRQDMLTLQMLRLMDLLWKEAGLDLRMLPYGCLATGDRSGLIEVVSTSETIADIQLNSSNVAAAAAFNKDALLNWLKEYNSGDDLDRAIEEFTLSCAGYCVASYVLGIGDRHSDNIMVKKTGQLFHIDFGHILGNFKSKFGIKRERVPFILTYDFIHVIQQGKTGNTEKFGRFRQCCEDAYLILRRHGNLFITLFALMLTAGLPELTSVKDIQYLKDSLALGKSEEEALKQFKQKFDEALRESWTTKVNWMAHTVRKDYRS
Sequence of PI3Kb (P27986 whole entry partner): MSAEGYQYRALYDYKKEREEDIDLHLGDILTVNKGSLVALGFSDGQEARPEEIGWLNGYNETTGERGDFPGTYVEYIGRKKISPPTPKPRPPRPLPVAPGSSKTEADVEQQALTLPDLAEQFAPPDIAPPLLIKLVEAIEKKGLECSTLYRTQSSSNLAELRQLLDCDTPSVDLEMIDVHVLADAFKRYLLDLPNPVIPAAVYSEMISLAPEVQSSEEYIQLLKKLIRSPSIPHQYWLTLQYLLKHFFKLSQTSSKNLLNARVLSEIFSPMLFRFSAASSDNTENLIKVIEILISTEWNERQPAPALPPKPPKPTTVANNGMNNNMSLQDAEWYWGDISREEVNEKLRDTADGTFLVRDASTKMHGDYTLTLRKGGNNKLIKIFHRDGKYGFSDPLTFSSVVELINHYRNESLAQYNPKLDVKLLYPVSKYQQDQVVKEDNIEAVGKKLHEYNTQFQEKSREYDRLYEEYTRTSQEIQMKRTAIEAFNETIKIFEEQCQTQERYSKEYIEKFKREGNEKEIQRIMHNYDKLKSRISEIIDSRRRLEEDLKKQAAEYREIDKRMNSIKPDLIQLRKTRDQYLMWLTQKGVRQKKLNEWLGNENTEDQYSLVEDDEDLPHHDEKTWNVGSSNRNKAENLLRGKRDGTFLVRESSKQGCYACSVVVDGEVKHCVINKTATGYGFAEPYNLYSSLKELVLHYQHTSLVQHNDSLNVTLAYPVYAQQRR

- IC50 (PI3Kb): 77.6 nM
- IC50 (S6RP(pS240/242)): 19.1 nM
- IC50 (786-O): 126 nM
- IC50 [1]: 7 nM
- IC50 [2]: 214 nM
- IC50 [3]: 246 nM
- IC50 [4]: 174 nM
SMILES: CO[C@@H](C)Cn1c(=O)n(C)c2cnc3ccc(-c4cncc(C(C)(C)O)c4)cc3c21 [Example 1, 8-[5-(1-Hydroxy-1-methylethyl)pyridin-3-yl]-1-[(2S)-2-methoxypropyl]-3-methyl-1,3-dihydro-2H-imidazo[4,5-c]quinolin-2-one]
